Measurements reported in patent US12215112B2, “CD151 inhibitors” (ESFAM BIOTECH PTY LTD, priority 2020, dated 2025).

System: PC3 cells
Experiment: xCELLigence RTCA real-time cell invasion assay (CIM plate, Matrigel) on PC3 prostate cancer cells
Type: cell-based
Details: Homo sapiens, PC-3, compound 25 uM to 1 uM, cell index monitored for 72 hours, four-parameter dose-response curve, read-out: IC50, Effect of compounds on the invention on prostate cancer cells
Description: The media antibiotics and serum were purchased from Invitrogen (Life Technologies). PC3 cells were purchased from ATCC (Granville, NSW, Australia). PC3 cells were expanded in cell culture T75 flasks with vented cap and then preserved in low passage number. The medium used for PC3 cells was RPMI (GlutaMAX) supplemented with 10% FCS and 1% penicillin/streptomycin (culture media). The cells were maintained at 37° C. in a humidified 95% (v/v) air/5% (v/v) CO2 environment and were grown up to 80% confluence.
XCELLigence® real-time cell analysis (RTCA) instrument (ACEA Biosciences), 16-well ACEA CIM-Plates, 16-well ACEA E-Plat and assembly tool were purchased from ELITechGroup empowering IVD (Braeside, Australia). The Matrigel was purchased from Corning (Australia).
To measure cell invasion under compound treatment the upper chamber of the CIM plate was coated with 5% Matrigel diluted in SF RPMI (20 μl) and incubated in a 37° C. tissue culture incubator for four hours. Using the assembly tool to support the chambers the lower chamber was filled with (160 μl) of culture media containing the compound in specific concertation from 25 uM to 1 uM and two controls (DMSO 0.1% and ESFAM 4C 10 uM) (see the schematic in FIG. 1). Once the upper chamber was placed on the top of the lower chamber it was loaded with (40 μl) serum-free (SF) RPMI containing the compound as previously stated. After one hour calibration in 37° C., plates were placed into the xCELLigence station, and the base-line electric impedance was measured to confirm that all wells and connections were working properly. In case of connection problem, the software automatically informs the researcher about the nature of the problem in the message section. Subsequently cells were trypsinized and upon harvesting and counting they were diluted in SF RPMI to desired density (3×10^4) and seeded (100 μl) in the wells. After 30 minutes of incubation in room-temperature to allow cell attachment the plates were loaded in the xCELLigence RTCA DP machine. The cell invasion was monitored in real-time for the duration of 72 hours. […]
The xCELLigence system automatically monitored the electrical impedance value of each well and expressed as a cell index (CI) value for the duration of 72 hours. The data for treatments was automatically grouped as the mean±standard deviation. The software version used in these experiments is 1.2.1. The electronic record of the experimental data is automatically saved in file that cannot be altered or changed by the researcher.
Statistical analysis was performed using Microsoft® Office EXCEL and GraphPad Prism 7. The IC50 was calculated from the four-parameter dose-response curve (log(inhibitor) vs. response-variable slopes). Where the row-data was inserted in GraphPad Prism 7 (Dose response x-log(dose)) and analysed for XY nonlinear regression (curve fit), dose response-inhibition, log(inhibitor) vs response variable slope (four parameters). For the IC90 calculation the log(IC50)=log(IC90)-(1/HillSlope)*log(9) equation was used in EXCEL based on the raw data extracted from xCELLigence system and the dose-response curve.

SMILES	IC50
CCOc1cccc(NC(=O)c2cc3nc(N4Cc5ccccc5C4)cc(-c4cn[nH]c4)n3n2)c1 [Compound 27, N-(3-ethoxyphenyl)-5-(isoindolin-2-yl)-7-(1H-pyrazol-4-yl)pyrazolo[1,5-a]pyrimidine-2-carboxamide]	1.99 µM
CC(C)Oc1cccc(NC(=O)c2cc3nc(N4Cc5ccccc5C4)cc(-c4cn[nH]c4)n3n2)c1 [Compound 28, 5-(isoindolin-2-yl)-N-(3-isopropoxyphenyl)-7-(1H-pyrazol-4-yl)pyrazolo[1,5-a]pyrimidine-2-carboxamide]	2.03 µM
CN(Cc1ccccc1)c1cc(-c2cn[nH]c2)n2nc(C(=O)Nc3ccc(Cl)cc3)cc2n1 [Compound 29, 5-(benzyl(methyl)amino)-N-(4-chlorophenyl)-7-(1H-pyrazol-4-yl)pyrazolo[1,5-a]pyrimidine-2-carboxamide]	3.58 µM
CN(Cc1ccccc1)c1cc(-c2cn[nH]c2)n2nc(C(=O)Nc3cccc(Cl)c3)cc2n1 [Compound 30, 5-(benzyl(methyl)amino)-N-(3-chlorophenyl)-7-(1H-pyrazol-4-yl)pyrazolo[1,5-a]pyrimidine-2-carboxamide]	1.61 µM
CN(Cc1ccccc1)c1cc(-c2cn[nH]c2)n2nc(C(=O)Nc3ccccc3Cl)cc2n1 [Compound 31, 5-(benzyl(methyl)amino)-N-(2-chlorophenyl)-7-(1H-pyrazol-4-yl)pyrazolo[1,5-a]pyrimidine-2-carboxamide]	2.21 µM
CN(Cc1ccccc1)c1cc(-c2cn[nH]c2)n2nc(C(=O)Nc3ccc(C(F)(F)F)cc3)cc2n1 [Compound 32, 5-(benzyl(methyl)amino)-7-(1H-pyrazol-4-yl)-N-(4-(trifluoromethyl)phenyl)pyrazolo[1,5-a]pyrimidine-2-carboxamide]	3.04 µM
CN(Cc1ccccc1)c1cc(-c2cn[nH]c2)n2nc(C(=O)Nc3cccc(C(F)(F)F)c3)cc2n1 [Compound 33, 5-(benzyl(methyl)amino)-7-(1H-pyrazol-4-yl)-N-(3-(trifluoromethyl)phenyl)pyrazolo[1,5-a]pyrimidine-2-carboxamide]	2.59 µM
CN(Cc1ccccc1)c1cc(-c2cn[nH]c2)n2nc(C(=O)Nc3ccccc3C(F)(F)F)cc2n1 [Compound 34, 5-(benzyl(methyl)amino)-7-(1H-pyrazol-4-yl)-N-(2-(trifluoromethyl)phenyl)pyrazolo[1,5-a]pyrimidine-2-carboxamide]	8.97 µM
CN(Cc1ccccc1)c1cc(-c2cn[nH]c2)n2nc(C(=O)Nc3ccc(F)cc3)cc2n1 [Compound 35, 5-(benzyl(methyl)amino)-N-(4-fluorophenyl)-7-(1H-pyrazol-4-yl)pyrazolo[1,5-a]pyrimidine-2-carboxamide]	1.4 µM
CN(Cc1ccccc1)c1cc(-c2cn[nH]c2)n2nc(C(=O)Nc3cccc(F)c3)cc2n1 [Compound 36, 5-(benzyl(methyl)amino)-N-(3-fluorophenyl)-7-(1H-pyrazol-4-yl)pyrazolo[1,5-a]pyrimidine-2-carboxamide]	1.47 µM
CN(Cc1ccccc1)c1cc(-c2cn[nH]c2)n2nc(C(=O)Nc3ccccc3F)cc2n1 [Compound 37, 5-(benzyl(methyl)amino)-N-(2-fluorophenyl)-7-(1H-pyrazol-4-yl)pyrazolo[1,5-a]pyrimidine-2-carboxamide]	3.1 µM
COc1ccc(CN(C)c2cc(-c3cn[nH]c3)n3nc(C(=O)Nc4ccc(Cl)cc4)cc3n2)cc1 [Compound 38, N-(4-chlorophenyl)-5-((4-methoxybenzyl)(methyl)amino)-7-(1H-pyrazol-4-yl)pyrazolo[1,5-a]pyrimidine-2-carboxamide]	4.36 µM
COc1cccc(CN(C)c2cc(-c3cn[nH]c3)n3nc(C(=O)Nc4ccc(Cl)cc4)cc3n2)c1 [Compound 39, N-(4-chlorophenyl)-5-((3-methoxybenzyl)(methyl)amino)-7-(1H-pyrazol-4-yl)pyrazolo[1,5-a]pyrimidine-2-carboxamide]	8.46 µM
COc1ccccc1CN(C)c1cc(-c2cn[nH]c2)n2nc(C(=O)Nc3ccc(Cl)cc3)cc2n1 [Compound 40, N-(4-chlorophenyl)-5-((2-methoxybenzyl)(methyl)amino)-7-(1H-pyrazol-4-yl)pyrazolo[1,5-a]pyrimidine-2-carboxamide]	3.96 µM
CN(Cc1ccc(C(F)(F)F)cc1)c1cc(-c2cn[nH]c2)n2nc(C(=O)Nc3ccc(Cl)cc3)cc2n1 [Compound 41, N-(4-chlorophenyl)-5-(methyl(4-(trifluoromethyl)benzyl)amino)-7-(1H-pyrazol-4-yl)pyrazolo[1,5-a]pyrimidine-2-carboxamide]	9.86 µM
CN(Cc1cccc(C(F)(F)F)c1)c1cc(-c2cn[nH]c2)n2nc(C(=O)Nc3ccc(Cl)cc3)cc2n1 [Compound 42, N-(4-chlorophenyl)-5-(methyl(3-(trifluoromethyl)benzyl)amino)-7-(1H-pyrazol-4-yl)pyrazolo[1,5-a]pyrimidine-2-carboxamide]	2.86 µM
CN(Cc1ccccc1C(F)(F)F)c1cc(-c2cn[nH]c2)n2nc(C(=O)Nc3ccc(Cl)cc3)cc2n1 [Compound 43, N-(4-chlorophenyl)-5-(methyl(2-(trifluoromethyl)benzyl)amino)-7-(1H-pyrazol-4-yl)pyrazolo[1,5-a]pyrimidine-2-carboxamide]	6.09 µM
O=C(Nc1cccc(OC2CCC2)c1)c1cc2nc(N3Cc4ccccc4C3)cc(-c3cn[nH]c3)n2n1 [Compound 50, N-(3-cyclobutoxyphenyl)-5-(isoindolin-2-yl)-7-(1H-pyrazol-4-yl)pyrazolo[1,5-a]pyrimidine-2-carboxamide]	1.46 µM

The next lines start with the values.

IC50	SMILES
12.2 µM	CN(Cc1ccc(Cl)cc1)c1cc(-c2cn[nH]c2)n2nc(C(=O)Nc3ccc(Cl)cc3)cc2n1 [Compound 44, 5-((4-chlorobenzyl)(methyl)amino)-N-(4-chlorophenyl)-7-(1H-pyrazol-4-yl)pyrazolo[1,5-a]pyrimidine-2-carboxamide]
10.8 µM	CN(Cc1cccc(Cl)c1)c1cc(-c2cn[nH]c2)n2nc(C(=O)Nc3ccc(Cl)cc3)cc2n1 [Compound 45, 5-((3-chlorobenzyl)(methyl)amino)-N-(4-chlorophenyl)-7-(1H-pyrazol-4-yl)pyrazolo[1,5-a]pyrimidine-2-carboxamide]
7 µM	CN(Cc1ccccc1Cl)c1cc(-c2cn[nH]c2)n2nc(C(=O)Nc3ccc(Cl)cc3)cc2n1 [Compound 46, 5-((2-chlorobenzyl)(methyl)amino)-N-(4-chlorophenyl)-7-(1H-pyrazol-4-yl)pyrazolo[1,5-a]pyrimidine-2-carboxamide]
6.18 µM	O=C(Nc1cccc(N2CCOCC2)c1)c1cc2nc(N3Cc4ccccc4C3)cc(-c3cn[nH]c3)n2n1 [Compound 47, 5-(isoindolin-2-yl)-N-(3-morpholinophenyl)-7-(1H-pyrazol-4-yl)pyrazolo[1,5-a]pyrimidine-2-carboxamide]
2.77 µM	CN1CCN(c2cccc(NC(=O)c3cc4nc(N5Cc6ccccc6C5)cc(-c5cn[nH]c5)n4n3)c2)CC1 [Compound 48, 5-(isoindolin-2-yl)-N-(3-(4-methylpiperazin-1-yl)phenyl)-7-(1H-pyrazol-4-yl)pyrazolo[1,5-a]pyrimidine-2-carboxamide]
5.85 µM	CC(=O)N1CCN(c2cccc(NC(=O)c3cc4nc(N5Cc6ccccc6C5)cc(-c5cn[nH]c5)n4n3)c2)CC1 [Compound 49, N-(3-(4-acetylpiperazin-1-yl)phenyl)-5-(isoindolin-2-yl)-7-(1H-pyrazol-4-yl)pyrazolo[1,5-a]pyrimidine-2-carboxamide]
3.55 µM	COc1cc(NC(=O)c2cc3nc(N4Cc5ccccc5C4)cc(-c4cn[nH]c4)n3n2)cc(OC)c1 [Compound 51, N-(3,5-dimethoxyphenyl)-5-(isoindolin-2-yl)-7-(1H-pyrazol-4-yl)pyrazolo[1,5-a]pyrimidine-2-carboxamide]
5.52 µM	COc1cc(Cl)cc(NC(=O)c2cc3nc(N4Cc5ccccc5C4)cc(-c4cn[nH]c4)n3n2)c1 [Compound 52, N-(3-chloro-5-methoxyphenyl)-5-(isoindolin-2-yl)-7-(1H-pyrazol-4-yl)pyrazolo[1,5-a]pyrimidine-2-carboxamide]
2.76 µM	COc1cc(NC(=O)c2cc3nc(N4Cc5ccccc5C4)cc(-c4cn[nH]c4)n3n2)ccc1Cl [Compound 53, N-(4-chloro-3-methoxyphenyl)-5-(isoindolin-2-yl)-7-(1H-pyrazol-4-yl)pyrazolo[1,5-a]pyrimidine-2-carboxamide]
